Source: patent publication US8822692B2, “Diterpenoid derivatives endowed of biological properties” (SIGMA-TAU Industrie Farmaceutiche Riunite S.p.A., priority 2010, dated 2014)
Marks after values point to notes of the source that are not given here.

Legend:
Format in all cases: in vivo, rat
[1] = test system: Ouabain-Hypertensive Rats (OHR); experiment: Anti-hypertensive effect in ouabain-hypertensive rats (OHR), six week oral treatment; details: six weeks
Experimental: (§1) Anti-hypertensive property of various derivatives were looked at in vivo in three animal models of hypertension (i.e., mutant α-adducin congenic rats, ouabain-hypertensive rats and Milan hypertensive rats).
Hypertension was provoked by subcutaneous ouabain infusion (15 μg/kg/day) in normotensive rats as already described (Ferrari P., et al., J. Pharmacol. Exp. Ther., 1998, 285, 83).

OHR rats = experiment: Urinary protein excretion and renal function in OHR rats
Experimental: The effect of the compound of example 4 on urinary protein excretion was investigated. Increased levels of circulating endogenous ouabain not only associate with hypertension but also may affect renal function and increase the risk of renal failure and proteinuria (Stella P., et al., J. Int. Med., 2008, 263, 274) which represent major organ complications associated to hypertension.
OHR rats were orally treated with the compound of example 4 at 0.1 μg/kg/day for 6 weeks. At the end of the treatment, rats were allocated in single metabolic cages for 24 h urine collection.
Proteinuria and urinary creatinine were measured by commercial kits (Sentinel). Rats were sacrificed and blood was collected for plasma creatinine measurement.

[2] = test system: Milan Hypertensive Rats (MHS); experiment: Anti-hypertensive effect in Milan hypertensive rats (MHS), six week oral treatment; details: for effect on SBP in MHS rats (in words): at the dose tested; for SBP / HR: oral gavage 10 μg/kg/day, six weeks; for SBP: vehicle 169 (experiment A), 164 (experiment B); for HR: vehicle 348 (experiment A), 363 (experiment B)
Text: as §1
Milan hypertensive rats is a rat model of genetic hypertension sustained by α-adducin mutation and increased circulating levels of endogenous ouabain (Ferrari P., et al., Hypertension: Pathophysiology, Diagnosis and Management, (Volume 1). Laragh J H and Brenner B M (Eds.), Raven Press Publishers, New York, USA, 1261-1279, (1995).
The compounds were administered by oral gavage (10 μg/kg/day) for six weeks.

[3] = test system: rats bearing an α-adducin mutation (NA strain); experiment: Anti-hypertensive effect in mutant α-adducin congenic rats (NA), six week oral treatment; details: six weeks; for SBP: vehicle 164.4; for HR: vehicle 412
Experimental: Anti-hypertensive property of various derivatives were looked at in vivo in three animal models of hypertension (i.e., mutant α-adducin congenic rats, ouabain-hypertensive rats and Milan hypertensive rats). The compound of example 4 was administered by oral gavage at various doses for six weeks to rats bearing an α-adducin mutation (NA strain). Such mutation leading to hypertension and organ complication (Bianchi G., et al., Proc. Natl. Acad. Sci., 1994, 91, 3999) was obtained by introgressing a segment of chromosome 14 containing the locus of α-adducin from Milan Hypertensive rats (MHS), having the mutant variant, into Milan Normotensive rats (MNS), carrying the wild type α-adducin variant (Tripodi G., et al., Biochem. Biophys. Res. Commun., 2004, 324, 562).

[4] = oral gavage 1 μg/kg/day once a day, experiment A, vehicle 173
[5] = oral gavage 1 μg/kg/day once a day, experiment A, vehicle 387
[6] = oral gavage 0.1 μg/kg/day once a day, experiment A, vehicle 173
[7] = oral gavage 0.1 μg/kg/day once a day, experiment A, vehicle 387

Row | SMILES | SBP [1, 4] | HR [1, 5] [beats/min] | SBP [1, 6] | HR [1, 7] [beats/min] | effect on SBP in MHS rats (in words) [2] | SBP [2] | HR [2] [beats/min] | also measured
1 | CC(N)CCCCC1(C)CCCC2(C)c3ccc(C(C)C)cc3CCC12.O=C(O)/C=C/C(=O)O (stereo not shown) [Example 26, 15-(4-Aminopentyl)-13-isopropylpodocarpa-8,11,13-triene fumarate] | 164 mmHg | 374 | – | – | – | – | – | –
2 | CC(C)c1ccc2c(c1)CCC1C(C)(/C=N/O[C@@H]3CCNC3)CCCC21C.O=C(O)/C=C/C(=O)O (stereo partly drawn) [Example 4, (E)-15-((R)-3-Pyrrolidinyloxyimino)-13-isopropylpodocarpa-8,11,13-triene fumarate] | 153** mmHg | 380 | 157** mmHg | 382 | not effective on SBP | – | – | urinary protein excretion in OHR rats (in words) (OHR rats; 0.1 μg/kg/day): significantly reduced the urinary protein excretion; Urinary creatinine (OHR rats; oral 0.1 μg/kg/day, 6 weeks, 24 h urine, OHR vehicle 33.7, saline controls 36.1): 35.6 mg/24 h; Proteinuria (OHR rats; oral 0.1 μg/kg/day, 6 weeks, 24 h urine, OHR vehicle 51.6 ± 5, saline controls 35.6): 42** mg/24 hr; Plasma creatinine (OHR rats; oral 0.1 μg/kg/day, 6 weeks, OHR vehicle 3.51, saline controls 3.1): 3.59 mg/dL; SBP ([3]; oral gavage 1 μg/kg/day): 150.6* mmHg; HR ([3]; oral gavage 1 μg/kg/day): 415 beats/min; SBP ([3]; oral gavage 10 μg/kg/day): 150.6* mmHg; HR ([3]; oral gavage 10 μg/kg/day): 425 beats/min; SBP ([3]; oral gavage 100 μg/kg/day): 147.5** mmHg; HR ([3]; oral gavage 100 μg/kg/day): 421 beats/min
3 | CC(C)c1ccc2c(c1)CCC1C(C)(CCCCCN)CCCC21C.O=C(O)/C=C/C(=O)O (stereo not shown) [Example 25, 15-(4-Aminobutyl)-13-isopropylpodocarpa-8,11,13-triene fumarate] | – | – | 164 mmHg | 395 | – | – | – | –
4 | CC(C)c1ccc2c(c1)CCC1C(C)(/C=N/O[C@H]3CCNC3)CCCC21C.O=C(O)/C=C/C(=O)O (stereo partly drawn) [Example 5, (E)-15-((S)-3-Pyrrolidinyloxyimino)-13-isopropylpodocarpa-8,11,13-triene fumarate] | – | – | 154** mmHg | 390 | – | 155* mmHg | 367 | –
5 | CC(C)c1ccc2c(c1)CCC1C(C)(C=NOC3CCNCC3)CCCC21C.O=C(O)C=CC(=O)O (stereo not shown) [Example 6, (E)-15-(4-Piperidinyloxyimino)-13-isopropylpodocarpa-8,11,13-triene fumarate] | 166 mmHg | 392 | – | – | – | – | – | –
6 | CC(C)c1ccc2c(c1)CCC1C(C)(COCCCN)CCCC21C.O=C(O)/C=C/C(=O)O (stereo not shown) [Example 27, 15-(3-Aminopropoxy)-13-isopropylpodocarpa-8,11,13-triene fumarate] | 156** mmHg | 390 | – | – | significantly reduced SBP | 156* mmHg | 367 | –
7 | CC(C)c1ccc2c(c1)C(=O)C[C@H]1[C@](C)(/C=N/OCCN)CCC[C@]21C.O=C(O)/C=C/C(=O)O [Example 12, (E)-15-(2-Aminoethoxyimino)-13-isopropylpodocarpa-8,11,13-triene-7-one fumarate] | – | – | – | – | significantly reduced SBP | 161* mmHg | 347 | SBP ([1]; oral gavage 10 μg/kg/day once a day, experiment B, vehicle 171): 156** mmHg; HR ([1]; oral gavage 10 μg/kg/day once a day, experiment B, vehicle 377): 380 beats/min
8 | CC(C)c1ccc2c(c1)CCC1C(C)(/C=C\CCCN)CCCC21C.O=C(O)/C=C/C(=O)O (stereo not shown) [Example 23, (Z)-15-(4-Aminobutyliden)-13-isopropylpodocarpa-8,11,13-triene fumarate] | 159** mmHg | 370 | – | – | – | – | – | –
